Values joined by “and” are separate entries in the source; they are usually repeats but may differ in a detail not shown here. Equal entries are not always repeated.
Test system: Balb/c mice
Experiment: In vivo acute toxicity
Settings: for Drug-induced lethality, died/survived (n = 6): 21 days
Description: Finally, we tested the acute toxicity of complex 16 in Balb/c mice after a single bolus i.p. injection of the compound dissolved in saline. […] Animals were monitored for 21 days after injection. […] Mice in these cohorts had normal hair cover; no changes of nutritional behaviour were registered over the entire period of observation. In contrast, doses >80 mg/kg were lethal for individual animals. […] Deaths were registered over the next 1–2 days (Table 5). In each group, the survived animals remained without visible changes for up to 21 days after the injection of 16.
The Balb/c female mice (8–10 weeks old, weight 20–22 g) were bred and hosted at the animal facility of the Blokhin Cancer Center. Mice were kept at 21 ± 1 °C, 50–60% humidity; food and water were added ad libitum. All manipulations were performed in accordance to the European Convention for the Protection of Vertebrate Animals used for Experimental and other Scientific Purposes (ETS 123). Compound 16 was injected i.p.; 70–110 mg/kg single bolus administration in 200 µL of saline. Each cohort contained six mice. Animals were monitored for 21 days after injection. General behavioural activity, nutritional habits, and the integrity of hair cover were the criteria of acute toxicity.

Na[trans-Ru(DMSO)(C21H19Cl2N5O)Cl4] [Compound 16]
signs of acute toxicity (110 mg/kg i.p., initial 1–2 h after injection): Tremor and dyspnoea
Drug-induced lethality, died/survived (n = 6) (single dose 70 mg/kg i.p., 70 mg/kg): no deaths and 0/6 *
Drug-induced lethality, died/survived (n = 6) (single dose 80 mg/kg i.p., 80 mg/kg): no deaths and 0/6
Drug-induced lethality, died/survived (n = 6) (single dose 90 mg/kg i.p.): 2/6
Drug-induced lethality, died/survived (n = 6) (single dose 100 mg/kg i.p.): 2/6
Drug-induced lethality, died/survived (n = 6) (single dose 110 mg/kg i.p.): 4/6
